Assay results as given in patent US20260317333A1, “Heteroaryl Compounds as Ligand Directed Degraders of IRAK4” (Celgene Corporation, priority 2023, published 2026).
Counter-ions that a name gives are not always drawn.

Molecular target: T1, IRAK4 (Homo sapiens, UniProt Q9NWZ3)
T1 sequence (Q9NWZ3 1-460): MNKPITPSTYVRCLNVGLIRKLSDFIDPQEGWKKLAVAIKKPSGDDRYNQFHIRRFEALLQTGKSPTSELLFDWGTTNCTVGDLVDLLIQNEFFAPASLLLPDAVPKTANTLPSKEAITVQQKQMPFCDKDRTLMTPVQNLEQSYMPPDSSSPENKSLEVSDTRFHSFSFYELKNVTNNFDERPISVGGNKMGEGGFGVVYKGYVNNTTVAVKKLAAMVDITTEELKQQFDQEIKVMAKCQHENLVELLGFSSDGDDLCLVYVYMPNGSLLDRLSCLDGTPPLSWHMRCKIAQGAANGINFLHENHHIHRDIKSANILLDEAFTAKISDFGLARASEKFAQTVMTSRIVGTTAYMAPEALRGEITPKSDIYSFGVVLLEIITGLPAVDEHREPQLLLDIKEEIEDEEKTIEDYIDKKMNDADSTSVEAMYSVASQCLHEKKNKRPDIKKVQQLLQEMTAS
Test: ALE THP1 HTRF (IRAK4 degradation in THP1 cells, HTRF with anti-IRAK4 antibodies)
Type: cell-based
Parameters: THP1 Homogeneous Time Resolved Fluorescence (ALE THP1 HTRF) Procedure; endogenous in cells; host or cells: THP1
Conditions: THP1 cell lysate; for DC50: read-out: ALE THP1 HTRF EC50
Method: Cell culture media was prepared in a tissue culture hood in a sterile environment by adding 10% FBS and 1% Penicillin Streptomycin to 500 mL no phenol red RPMI 1640 media. The media was filtered through a Nalgene Bottle Top Filter and stored at 4° C.
For Homogenous Time Resolved Fluorescence (HTRF) assays, a Cisbio HTRF kit was used, which included: Lysis Buffer #1 4×, Blocking Reagent #3 100×, 20× Antibody 1 (Anti-IRAK4 d2), 20× Antibody 2 (Anti-IRAK4 k), and Detection Buffer.
4× Lysis Buffer was stored at 4° C. For use as 1× Lysis buffer, the 4× solution was diluted with de-ionized water (distilled water, Gibco Cat. #15230279) and 100× Blocking Reagent in a 1:3:0.04 volume ratio.
20× Antibody Solution aliquots were stored at −80° C. and the Detection Buffer was stored at 4° C. For use as a 1× Antibody Solution, the 20× Antibody Solution aliquot was diluted with Detection Buffer in a 1:19 volume ratio.
Cells were lysed at room temperature for 45 min with shaking. A BCA protein assay was performed and normalization was conducted to the desired total protein concentration with 1× lysis buffer. Next, 1× Antibody Solutions were prepared by adding 380 μL Detection Buffer to 20 μL 20× Antibody Solution aliquots and mixing well. 1× Antibody Solutions were combined 1:1 and briefly vortexed. For control wells, 20 μL 1× anti IRAK4-k Antibody Solution was saved. The 384-well plate (ProxiPlate-384 Plus, Perkin Elmer Cat. #6008289) was loaded by adding 4 μL of the mixed Antibody Solution to empty wells using a single channel repeater. Using a multi-channel repeater, 16 μL lysate was added per well, and any bubbles that were formed were popped with 20 μL pipette tips and Kimwipe edges. In column 10, triplicates of each control were prepared. In wells A10, B10, and C10, buffer control was prepared by adding 16 μL Lysis Buffer and 4 μL Detection Buffer. In wells D10, E10, and F10, cryptate control was prepared by adding 16 μL Lysis Buffer, 2 μL Detection Buffer, and 2 μL 1× anti-IRAK4-k Antibody Solution. In wells G10, H10, and I10, a negative control was prepared by adding 16 μL Lysis Buffer and 4 μL mixed Antibody Solution. The plate was sealed with a clear seal and covered with an aluminum lid. The plate was spun down at 800 g for 5 min and incubated in the dark at room temperature overnight. The next day, the plate was spun down at 800 g for 5 min. The samples were analyzed by a plate reader (Envision, PerkinElmer) using the Desnor 384 HTRF program.

| SMILES | ALE THP1 HTRF YMIN [%] | DC50 [nM] |
| --- | --- | --- |
| N[C@@H]1C[C@@H](F)CN(c2ccn3ncc(C(=O)Nc4cn([C@H]5CC[C@H](CCN6CCC[C@H](c7ccc(C8CCC(=O)NC8=O)cc7)C6)CC5)nc4C(F)F)c3n2)C1 (stereo in doubt) [Compound P-29] | >95 | > 10000 |
| N[C@@H]1C[C@@H](F)CN(c2ccn3ncc(C(=O)Nc4cn([C@H]5CC[C@H](CN6CCN(C(=O)c7ccc(C8CCC(=O)NC8=O)cc7)CC6)CC5)nc4C(F)(F)F)c3n2)C1 (some centres unmarked) [Compound P-4] | 32 | > 10000 |
| N[C@@H]1C[C@@H](F)CN(c2ccn3ncc(C(=O)Nc4cn([C@H]5CC[C@H](CN6CCC(Nc7ccc(C8CCC(=O)NC8=O)cc7)CC6)CC5)nc4C(F)(F)F)c3n2)C1 (stereo partly drawn) [Compound P-5, N-[1-[4-[[4-[4-(2,6-dioxo-3-piperidyl)anilino]-1-piperidyl]methyl]cyclohexyl]-3-(trifluoromethyl)pyrazol-4-yl]-5-[(3R,5R)-3-amino-5-fluoro-1-piperidyl]pyrazolo[1,5-a]pyrimidine-3-carboxamide hydrochloride] | 45 | 57 |
| N[C@@H]1C[C@@H](F)CN(c2ccn3ncc(C(=O)Nc4cn([C@H]5CC[C@H](CN6CCC(CNc7cccc(C8CCC(=O)NC8=O)c7)CC6)CC5)nc4C(F)(F)F)c3n2)C1 (stereo partly drawn) [Compound P-6, 5-((3R,5R)-3-amino-5-fluoropiperidin-1-yl)-N-(1-((1r,4r)-4-((4-(((3-(2,6-dioxopiperidin-3-yl)phenyl)amino)methyl)piperidin-1-yl)methyl)cyclohexyl)-3-(trifluoromethyl)-1H-pyrazol-4-yl) pyrazolo[1,5-a]pyrimidine-3-carboxamide hydrochloride] | 15 | 17 |
| N[C@@H]1C[C@@H](F)CN(c2ccn3ncc(C(=O)Nc4cn([C@H]5CC[C@H](CN6CCC(Nc7cccc(C8CCC(=O)NC8=O)c7)CC6)CC5)nc4C(F)(F)F)c3n2)C1 (some centres unmarked) [Compound P-8] | >95 | > 10000 |
| N[C@@H]1C[C@@H](F)CN(c2ccn3ncc(C(=O)Nc4cn([C@H]5CC[C@H](C(=O)N6CCN(Cc7ccc(C8CCC(=O)NC8=O)cc7)CC6)CC5)nc4C(F)(F)F)c3n2)C1 (some centres unmarked) [Compound P-12] | 57 | 6860 |
| N[C@@H]1C[C@@H](F)CN(c2ccn3ncc(C(=O)Nc4cn([C@H]5CC[C@H](CN6CCN(Cc7ccc(C8CCC(=O)NC8=O)cc7)CC6)CC5)nc4C(F)(F)F)c3n2)C1 (some centres unmarked) [Compound P-13] | 18 | 405 |
| N[C@@H]1C[C@@H](F)CN(c2ccn3ncc(C(=O)Nc4cn([C@H]5CC[C@H](C(=O)NC6CCN(c7cccc(C8CCC(=O)NC8=O)c7)CC6)CC5)nc4C(F)F)c3n2)C1 (some centres unmarked) [Compound P-14] | 64 | > 10000 |
| N[C@@H]1C[C@@H](F)CN(c2ccn3ncc(C(=O)Nc4cn([C@H]5CC[C@H](C(=O)NC6CCN(c7ccc(C8CCC(=O)NC8=O)cc7)CC6)CC5)nc4C(F)F)c3n2)C1 (stereo partly drawn) [Compound P-15, 5-[(3R,5R)-3-amino-5-fluoro-1-piperidyl]-N-[3-(difluoromethyl)-1-[4-[[1-[4-(2,6-dioxo-3-piperidyl)phenyl]-4-piperidyl]carbamoyl]cyclohexyl]pyrazol-4-yl]pyrazolo[1,5-a]pyrimidine-3-carboxamide hydrochloride] | 11 | 4 |
| CN(CC1CCN(C(=O)[C@H]2CC[C@H](n3cc(NC(=O)c4cnn5ccc(N6C[C@H](N)C[C@@H](F)C6)nc45)c(C(F)F)n3)CC2)CC1)c1cccc(C2CCC(=O)NC2=O)c1 (stereo partly drawn) [Compound P-16, 5-((3R,5R)-3-amino-5-fluoropiperidin-1-yl)-N-(3-(difluoromethyl)-1-((1r,4r)-4-(4-(((3-(2,6-dioxopiperidin-3-yl)phenyl)(methyl)amino)methyl)piperidine-1-carbonyl)cyclohexyl)-1H-pyrazol-4-yl)pyrazolo[1,5-a]pyrimidine-3-carboxamide hydrochloride] | 18 | 28 |
| N[C@@H]1C[C@@H](F)CN(c2ccn3ncc(C(=O)Nc4cn([C@H]5CC[C@H](C(=O)N6CCC7(CC6)CN(c6cccc(C8CCC(=O)NC8=O)c6)C7)CC5)nc4C(F)F)c3n2)C1 (some centres unmarked) [Compound P-17] | 73 | > 10000 |
| N[C@@H]1C[C@@H](F)CN(c2ccn3ncc(C(=O)Nc4cn([C@H]5CC[C@H](CN6CCC7(CC6)CN(c6cccc(C8CCC(=O)NC8=O)c6)C7)CC5)nc4C(F)F)c3n2)C1 (some centres unmarked) [Compound P-18] | 13 | 9180 |
| CN(CC1CCN(C[C@H]2CC[C@H](n3cc(NC(=O)c4cnn5ccc(N6C[C@H](N)C[C@@H](F)C6)nc45)c(C(F)F)n3)CC2)CC1)c1cccc(C2CCC(=O)NC2=O)c1 (stereo partly drawn) [Compound P-19, N-[3-(Difluoromethyl)-1-[4-[4-[[3-(2,6-dioxo-3-piperidyl)-N-methyl-anilino]methyl]-1-piperidyl]methyl]cyclohexyl]pyrazol-4-yl]-5-[(3R,5R)-3-amino-5-fluoro-1-piperidyl]pyrazolo[1,5-a]pyrimidine-3-carboxamide dihydrochloride] | 11 | 10 |
| N[C@@H]1C[C@@H](F)CN(c2ccn3ncc(C(=O)Nc4cn([C@H]5CC[C@H](CCN6CCC(c7ccc(C8CCC(=O)NC8=O)cc7)CC6)CC5)nc4C(F)F)c3n2)C1 (some centres unmarked) [Compound P-20] | 12 | 11 |
| N[C@@H]1C[C@@H](F)CN(c2ccn3ncc(C(=O)Nc4cn([C@H]5CC[C@H](CCN6CCN(c7ccc(C8CCC(=O)NC8=O)cc7)CC6)CC5)nc4C(F)F)c3n2)C1 (stereo partly drawn) [Compound P-21, N-[3-(Difluoromethyl)-1-[4-[2-[4-[4-(2,6-dioxo-3-piperidyl)phenyl]piperazin-1-ylethyl]cyclohexyl]pyrazol-4-yl]-5-[(3R,5R)-3-amino-5-fluoro-1-piperidyl]pyrazolo[1,5-a]pyrimidine-3-carboxamide formic acid salt] | 15 | 10 |
| N[C@@H]1C[C@@H](F)CN(c2ccn3ncc(C(=O)Nc4cn([C@H]5CC[C@H](CCN6CCN(c7cccc(C8CCC(=O)NC8=O)c7)CC6)CC5)nc4C(F)F)c3n2)C1 (some centres unmarked) [Compound P-22] | 43 | 3010 |
| N[C@@H]1C[C@@H](F)CN(c2ccn3ncc(C(=O)Nc4cn([C@H]5CC[C@H](CCN6CCC7(CC6)CN(c6ccc(C8CCC(=O)NC8=O)cc6)C7)CC5)nc4C(F)F)c3n2)C1 (stereo partly drawn) [Compound P-23, N-[3-(Difluoromethyl)-1-[4-[2-[2-[4-(2,6-dioxo-3-piperidyl)phenyl]-2,7-diazaspiro[3.5]nonan-7-yl]ethyl]cyclohexyl]pyrazol-4-yl]-5-[(3R,5R)-3-amino-5-fluoro-1-piperidyl]pyrazolo[1,5-a]pyrimidine-3-carboxamide formic acid salt] | 15 | 11 |
| N[C@@H]1C[C@@H](F)CN(c2ccn3ncc(C(=O)Nc4cn([C@H]5CC[C@H](CCN6CCC(Nc7cccc(C8CCC(=O)NC8=O)c7)CC6)CC5)nc4C(F)F)c3n2)C1 (stereo partly drawn) [Compound P-24, 5-((3R,5R)-3-Amino-5-fluoropiperidin-1-yl)-N-(3-(difluoromethyl)-1-((1r,4r)-4-(2-(4-((3-(2,6-dioxopiperidin-3-yl)phenyl)amino)piperidin-1-yl)ethyl)cyclohexyl)-1H-pyrazol-4-yl) pyrazolo[1,5-a]pyrimidine-3-carboxamide dihydrochloride] | 12 | 12 |
| N[C@@H]1C[C@@H](F)CN(c2ccn3ncc(C(=O)Nc4cn([C@H]5CC[C@H](C(=O)NC6CCN(c7ccc(C8CCC(=O)NC8=O)nc7)CC6)CC5)nc4C(F)F)c3n2)C1 (some centres unmarked) [Compound P-25] | 15 | 6 |
